Results on 36 compounds are retold here after a melting point compilation (Tetko et al.; mined from patent text by program, amines drawn as free bases though some values may be those of a salt).

Molecules are shown by their SMILES.

One may read the melting point as the temperature, or range, at which the solid turns liquid. On to `CCOC(=O)CC(=O)C=Cc1ccc([N+](=O)[O-])cc1`, for which the melting point came to 116 °C.
For `Cc1cc(N)ccc1N1CCC(N2CCOCC2)CC1`, the melting point was 199 to 200 °C.
Next, `NC(=O)c1ccn2c1CSC2`: 186 °C.
`COC(=O)CCCCC(=O)c1ccc(F)cc1` yielded a melting point of 41 to 43 °C.
Next, `CC(=O)NCc1ccc2c(c1)N(C1CCN(CCc3ccccc3F)CC1)CC2`: 160 to 161 °C; `COc1ccc(Nc2nc(NCCN(C)C)nc(NC3CCCCCC3)n2)cc1F`: 73 to 76 °C; `O=c1[nH]c2cc(Cl)ccc2c(O)c1-c1ccc(F)cc1`: 335 to 337 °C.
Next, `Cc1cnc2c(NC(=O)c3c(Cl)cccc3Cl)ccc(C)c2c1-n1ccnc1`: 214 to 216 °C.
As to `CNc1nn(C)c2nc3n(c(=O)c12)CCS3`, the melting point fell in the range of 255 to 256 °C.
In turn, `c1ccc(-c2nc3ccccc3n3cncc23)cc1` yielded a melting point of 165 to 167 °C.
Next, `COc1cccc(COC(=O)c2ncn3c2[C@@H]2CCCN2C(=O)c2c(Cl)cccc2-3)c1`: 131 to 133 °C; `CC1(C)COC(=O)N1c1nc(-c2cccc(C#N)c2)cs1`: 181 to 183 °C.
Next, `ClCc1nc2cc(Br)ccc2s1`: 107 °C; `Cc1cc(OC(F)F)ccc1NC(=O)c1cccc([N+](=O)[O-])c1C(=O)NC(C)C`: 148 to 149 °C; `CCOC(=O)/C(=N\OCc1c(Cl)cccc1Cl)c1csc(N)n1`: 171 to 172 °C.
Next, `CCOC(=O)COc1ccc(Cn2c(-c3ccc(OCc4ccccc4)cc3)c(C)c3cc(OCc4ccccc4)ccc32)cc1OC`: 120 to 123 °C.
`O=C(O)c1cc(SCC(=O)c2ccccc2)cc(C(F)(F)F)c1` yielded a melting point of 135 to 150 °C.
Next, `Cc1cc(C#N)ccc1-c1ccc(-c2nc3cc(C#N)ccc3[nH]2)cc1`: 269 to 270 °C.
Next, `CCNc1nc2ccccc2s1`: 93 °C.
Turning to `O=[N+]([O-])c1ccc(Oc2ccc(Cl)cc2)cc1`, the melting point fell in the range of 67 to 70 °C.
Next, `CN(C)CCCOc1ccccc1C=C1CCc2ccccc2C1=O`: 67 to 69 °C; `CCCn1ncnc1COc1nc2c(cc1C(C)(C)C)nnn2-c1ccccc1F`: 127 to 129 °C.
Turning to `O=C(Nc1cccc2c(=O)cc(-c3nnn[nH]3)oc12)c1ccc2c(c1)CC(CCCc1ccccc1)O2` (stereo unspecified), the melting point lay within 234 to 235 °C.
For `Fc1ccc2c(c1)CC(n1cc[nH]c1=S)CC2` (stereo unspecified), the melting point was 215 to 217 °C.
Take `CCOC(=O)[C@H]1O[C@@H]1C(=O)N[C@H](COCc1ccsc1)CC(C)C`: the melting point was in the range of 61 to 62.5 °C.
Next, `CN1CC=C(c2cccc3[nH]ccc23)CC1`: 164 °C.
As for `O=C(Nc1ccc(Cl)c(C(F)(F)F)c1)Nc1ccc2ncsc2c1`, the melting point is 225 to 228 °C.
Next, `COP(=O)(OC)C1=C(C)NC(C)=C(C(=O)OCCN(C)Cc2ccccc2)C1c1cccc([N+](=O)[O-])c1` (stereo unspecified): 101 to 103 °C; `COc1ccc(CNc2ncnc3c2ncn3C2OC(c3nnn[nH]3)C(O)C2O)cc1` (stereo unspecified): 210 to 211 °C; `Cc1cccn2cc(C(C)C)c(S(=O)(=O)c3ccc(O)cc3)c12`: 191 to 193 °C.
Take `Cc1nc2cc(-c3ccc(C=C4SC(=O)NC4=O)cn3)cc(C34CC5CC(CC(C5)C3)C4)c2o1`: the melting point was > 360 °C.
Next, `CC(C)OC(=O)C(C)Oc1ncn(-c2ccccc2)n1` (stereo unspecified): 104 °C; `CC1(C)CCC(C)(C)c2cc(N)c(N)cc21`: 185 °C; `O=C(O)C1CS(=O)(=O)C2CC(=O)N12` (stereo unspecified): 164 to 167 °C.
The compound `O=[N+]([O-])c1ccc(C=CS(=O)(=O)N=C(Cl)c2ccccc2)cc1` registered a melting point of 168 to 175 °C.
Next, `Cc1cc(C)c2nc(C3CC3)n(Cc3ccc(C4(C(=O)O)Cc5ccccc5C4)s3)c2n1`: 250 to 252 °C.
